Experimental data: PubChem BioAssay AID2060887 (Molecular Pharmacology Branch, DTP, NCI, 2025)

Tested on: 782815-120-R-J1-PDC complex spheroid viability
Experiment: Anticancer human tumor 782815-120-R-J1-PDC patient-derived colon adenocarcinoma cell line growth inhibition [RAS]
Conditions: for IC50: curve of first compound; for viability, T/C: stronger effect = lower value; active means viability on the fitted dose curve at most 10% of control; inactive means the rest
Method in brief: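 Agents were tested in combination matrices in half-log decrements from a top concentration at or near clinical Cmax (10 microM if undetermined). Targets were multi-cell spheroids of tumour lines plus HUVEC and MSC stromal cells.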

[1] = second compound 0.000949 µM, first compound 0.0316 µM
[2] = second compound 0.000949 µM, first compound 0.1 µM
[3] = second compound 0.000949 µM, first compound 0.316 µM
[4] = second compound 0.000949 µM, first compound 1 µM
[5] = second compound 0.003 µM, first compound 0.0316 µM
[6] = second compound 0.003 µM, first compound 0.1 µM
[7] = second compound 0.003 µM, first compound 0.316 µM
[8] = second compound 0.003 µM, first compound 1 µM
[9] = second compound 0.00949 µM, first compound 0.0316 µM
[10] = second compound 0.00949 µM, first compound 0.1 µM
[11] = second compound 0.00949 µM, first compound 0.316 µM
[12] = second compound 0.00949 µM, first compound 1 µM
[13] = second compound 0.03 µM, first compound 0.0316 µM
[14] = second compound 0.03 µM, first compound 0.1 µM
[15] = second compound 0.03 µM, first compound 0.316 µM
[16] = second compound 0.03 µM, first compound 1 µM
[17] = second compound 0.0949 µM, first compound 0.0316 µM
[18] = second compound 0.0949 µM, first compound 0.1 µM
[19] = second compound 0.0949 µM, first compound 0.316 µM
[20] = second compound 0.0949 µM, first compound 1 µM
[21] = second compound 0.3 µM, first compound 0.0316 µM
[22] = second compound 0.3 µM, first compound 0.1 µM
[23] = second compound 0.3 µM, first compound 0.316 µM
[24] = second compound 0.3 µM, first compound 1 µM
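Further: spheroids exposed to compounds for 7 days before reading.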
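Wherever viability, T/C is given: 100% = DMSO vehicle control viability.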

NC1c2ccccc2OC12CCN(c1cnc3c(N4CCCc5ncccc54)n[nH]c3n1)CC2 (centres undefined) + CCn1c(-c2cccnc2C(C)OC)c2c3cc(ccc31)N1CCOC(CC(NC(=O)C(C(C)C)N(C)C(=O)C3(F)CCN(C(=O)C#CC(C)(C)N(C)C)CC3)C(=O)N3CCCC(N3)C(=O)OCC(C)(C)C2)C1
inactive: viability, T/C [1] 97.9% | viability, T/C [2] 105% | viability, T/C [3] 108% | viability, T/C [4] 105% | viability, T/C (second compound 0.000949 µM, first compound 3.16 µM) 93.9% | viability, T/C (second compound 0.000949 µM, first compound 10 µM) 77.7% | viability, T/C [5] 91.5% | viability, T/C [6] 104% | viability, T/C [7] 101% | viability, T/C [8] 89.4% | viability, T/C (second compound 0.003 µM, first compound 3.16 µM) 102% | viability, T/C (second compound 0.003 µM, first compound 10 µM) 85.8% | viability, T/C [9] 96.2% | viability, T/C [10] 109% | viability, T/C [11] 91.5% | viability, T/C [12] 93.2% | viability, T/C (second compound 0.00949 µM, first compound 3.16 µM) 100% | viability, T/C (second compound 0.00949 µM, first compound 10 µM) 76.7% | viability, T/C [13] 88.5% | viability, T/C [14] 106% | viability, T/C [15] 95.1% | viability, T/C [16] 98.5% | viability, T/C (second compound 0.03 µM, first compound 3.16 µM) 91.2% | viability, T/C (second compound 0.03 µM, first compound 10 µM) 80.3% | viability, T/C [17] 89.1% | viability, T/C [18] 93% | viability, T/C [19] 92.6% | viability, T/C [20] 99.7% | viability, T/C (second compound 0.0949 µM, first compound 3.16 µM) 103% | viability, T/C (second compound 0.0949 µM, first compound 10 µM) 76.5% | viability, T/C [21] 90.8% | viability, T/C [22] 91.6% | viability, T/C [23] 85.8% | viability, T/C [24] 92.5% | viability, T/C (second compound 0.3 µM, first compound 3.16 µM) 88.6% | viability, T/C (second compound 0.3 µM, first compound 10 µM) 73.4%
> 10000 nM: IC50 (second compound 0.000949 µM) | IC50 (second compound 0.003 µM) | IC50 (second compound 0.00949 µM) | IC50 (second compound 0.03 µM) | IC50 (second compound 0.0949 µM) | IC50 (second compound 0.3 µM)

Nc1ccn(C2OC(CO)C(O)C2(F)F)c(=O)n1 (centres undefined) + CCn1c(-c2cccnc2C(C)OC)c2c3cc(ccc31)N1CCOC(CC(NC(=O)C(C(C)C)N(C)C(=O)C3(F)CCN(C(=O)C#CC(C)(C)N(C)C)CC3)C(=O)N3CCCC(N3)C(=O)OCC(C)(C)C2)C1
29.3 nM: IC50 (second compound 0.000949 µM)
31.5 nM: IC50 (second compound 0.00949 µM)
inactive: viability, T/C (second compound 0.000949 µM, first compound 0.00316 µM) 89.4% | viability, T/C (second compound 0.000949 µM, first compound 0.01 µM) 64.7% | viability, T/C [1] 50.6% | viability, T/C [2] 37.2% | viability, T/C [3] 23.5% | viability, T/C [4] 23.5% | viability, T/C (second compound 0.003 µM, first compound 0.00316 µM) 95% | viability, T/C (second compound 0.003 µM, first compound 0.01 µM) 71.3% | viability, T/C [5] 59.3% | viability, T/C [6] 34.6% | viability, T/C [7] 27.3% | viability, T/C [8] 24.5% | viability, T/C (second compound 0.00949 µM, first compound 0.00316 µM) 96.2% | viability, T/C (second compound 0.00949 µM, first compound 0.01 µM) 71.8% | viability, T/C [9] 50.8% | viability, T/C [10] 34.7% | viability, T/C [11] 29.1% | viability, T/C [12] 25.7% | viability, T/C (second compound 0.03 µM, first compound 0.00316 µM) 85.4% | viability, T/C (second compound 0.03 µM, first compound 0.01 µM) 75.7% | viability, T/C [13] 53.2% | viability, T/C [14] 33.6% | viability, T/C [15] 27.2% | viability, T/C [16] 25.7% | viability, T/C (second compound 0.0949 µM, first compound 0.00316 µM) 83.6% | viability, T/C (second compound 0.0949 µM, first compound 0.01 µM) 71.8% | viability, T/C [17] 57.9% | viability, T/C [18] 38.7% | viability, T/C [19] 28.1% | viability, T/C [20] 20.1% | viability, T/C (second compound 0.3 µM, first compound 0.00316 µM) 85.3% | viability, T/C (second compound 0.3 µM, first compound 0.01 µM) 71.2% | viability, T/C [21] 58.4% | viability, T/C [22] 38.5% | viability, T/C [23] 24.2% | viability, T/C [24] 22.1%
38 nM: IC50 (second compound 0.03 µM)
50 nM: IC50 (second compound 0.0949 µM)
42.4 nM: IC50 (second compound 0.003 µM)
47.6 nM: IC50 (second compound 0.3 µM)
